Results as given in ChEMBL document CHEMBL1201862, “PubChem BioAssay data set” (2004).
Active and inactive are the calls of the source.

How the values were obtained:
[1] = test system: Streptococcus sp. 'group A'; assay: growth inhibition of control SK(-) GAS strain, dose response, counter-screen for streptokinase expression inhibitor project, luminescence, kanamycin, BacTiterGlo, confirmation (AID 1900); type: functional, organism-based
[2] = test system: Streptococcus; assay: Group A Streptococcus viability loss, dose response, counter-screen for streptokinase expression inhibitor project, luminescence, BacTiterGlo (AID 1915); type: functional, organism-based;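 note: potency for reduction of bacterial viability or growth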
[3] = biological target: Voltage-dependent T-type calcium channel subunit alpha-1H (Homo sapiens, UniProt O95180); type: functional;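 note: channel activity triggered by adding a high calcium stimulation buffer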
[4] = biological target: T1, Short transient receptor potential channel 4 (Mus musculus, UniProt Q9QUQ5); assay: mouse TRPC4 channel activators, dose response, cell-based, HEK293 TRPC4/mu-opioid, Fluo-4 calcium (AID 434937); type: functional
T1 sequence (Q9QUQ5 whole entry): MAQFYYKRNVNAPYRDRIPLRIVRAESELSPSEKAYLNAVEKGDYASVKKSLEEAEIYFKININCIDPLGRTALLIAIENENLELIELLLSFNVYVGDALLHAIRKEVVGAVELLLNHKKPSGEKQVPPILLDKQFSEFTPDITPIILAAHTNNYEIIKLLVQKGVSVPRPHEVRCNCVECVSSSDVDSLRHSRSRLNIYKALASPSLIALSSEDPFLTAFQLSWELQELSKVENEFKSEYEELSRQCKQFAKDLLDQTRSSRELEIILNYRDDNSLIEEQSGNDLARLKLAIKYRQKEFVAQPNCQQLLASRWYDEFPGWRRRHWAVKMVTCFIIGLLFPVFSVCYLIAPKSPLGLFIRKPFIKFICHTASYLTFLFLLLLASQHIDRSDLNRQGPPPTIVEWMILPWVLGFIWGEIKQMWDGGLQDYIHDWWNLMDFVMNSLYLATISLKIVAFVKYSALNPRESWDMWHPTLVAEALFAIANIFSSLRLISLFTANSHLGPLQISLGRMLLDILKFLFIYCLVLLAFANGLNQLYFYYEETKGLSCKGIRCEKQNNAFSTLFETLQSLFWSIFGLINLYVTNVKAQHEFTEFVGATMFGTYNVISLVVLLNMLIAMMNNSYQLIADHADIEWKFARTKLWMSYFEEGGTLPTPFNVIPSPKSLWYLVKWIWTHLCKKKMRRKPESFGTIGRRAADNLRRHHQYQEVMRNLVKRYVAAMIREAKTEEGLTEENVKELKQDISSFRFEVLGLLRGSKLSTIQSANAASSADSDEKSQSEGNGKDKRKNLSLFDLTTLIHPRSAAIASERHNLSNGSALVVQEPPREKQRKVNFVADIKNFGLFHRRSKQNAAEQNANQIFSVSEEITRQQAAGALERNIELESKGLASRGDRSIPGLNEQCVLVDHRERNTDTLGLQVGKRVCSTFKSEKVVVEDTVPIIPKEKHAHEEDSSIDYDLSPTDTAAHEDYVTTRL

[5] = biological target: T2, Corticotropin-releasing factor receptor 2/Corticotropin-releasing factor-binding protein (Homo sapiens, UniProt P24387+Q13324); assay: Dose Response confirmation of uHTS hits for small molecule antagonists of the CRF-binding protein and CRF-R2 receptor complex.; type: functional; details: read-out: IC50_Mean
T2 sequence (Q13324 whole entry): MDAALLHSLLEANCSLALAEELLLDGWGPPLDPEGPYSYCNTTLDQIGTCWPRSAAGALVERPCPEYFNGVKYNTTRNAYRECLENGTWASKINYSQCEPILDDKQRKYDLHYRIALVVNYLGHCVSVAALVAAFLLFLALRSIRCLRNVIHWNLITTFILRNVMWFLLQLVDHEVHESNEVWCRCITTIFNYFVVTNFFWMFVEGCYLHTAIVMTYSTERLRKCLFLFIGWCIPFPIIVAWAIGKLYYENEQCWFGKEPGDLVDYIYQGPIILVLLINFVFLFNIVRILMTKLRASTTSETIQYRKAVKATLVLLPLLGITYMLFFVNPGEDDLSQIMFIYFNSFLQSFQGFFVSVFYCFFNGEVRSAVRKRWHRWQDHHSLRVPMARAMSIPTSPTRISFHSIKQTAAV
T2 sequence (P24387 whole entry): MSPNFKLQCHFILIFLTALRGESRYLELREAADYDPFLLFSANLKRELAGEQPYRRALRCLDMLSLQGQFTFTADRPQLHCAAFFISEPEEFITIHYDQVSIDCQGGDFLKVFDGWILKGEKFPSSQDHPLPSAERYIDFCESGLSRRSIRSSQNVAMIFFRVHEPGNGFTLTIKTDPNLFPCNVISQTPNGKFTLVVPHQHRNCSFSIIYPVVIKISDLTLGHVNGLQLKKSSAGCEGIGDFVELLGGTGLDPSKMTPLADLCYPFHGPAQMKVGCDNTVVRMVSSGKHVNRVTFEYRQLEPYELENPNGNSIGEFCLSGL

[6] = biological target: T2, Corticotropin-releasing factor receptor 2/Corticotropin-releasing factor-binding protein; assay: activators of CRF receptor 2 with binding protein – uHTS hits, confirmation (AID 602473); type: functional; details: read-out: EC50_Mean
[7] = biological target: Cytochrome P450 3A4 (Homo sapiens, UniProt P08684); details: Potency;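 note: confirmatory qHTS run detecting inhibitors and substrates of CYP3A4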
[8] = growth suppression of PTEN-null colon cells, dose response, cell-based, HCT116 PTEN knockout (AID 1047); type: functional;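 note: HCT116 colon tumor cells with PTEN knocked out; cells exposed to compound for 60 hours before readout; potency for loss of cell viability measured by luminescence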
[9] = growth suppression of beta-catenin-knockout colon cells, dose response, cell-based, HCT116, human colon tumor (AID 1045); type: functional;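 note: HCT116 colon tumor cells with beta catenin knocked out; cells exposed to compound for 60 hours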
[10] = biological target: Eukaryotic translation initiation factor 4E (Mus musculus, UniProt P63073); assay: eIF4E–eIF4G protein interaction inhibitors, dose response, biochemical, TR-FRET (AID 855); type: functional;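 note: potency for disrupting eIF4E binding to eIF4GI seen as loss of FRET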
[11] = biological target: T3, Aminopeptidase N (Plasmodium falciparum FcB1/Columbia, UniProt O96935); assay: P. falciparum M1AAP inhibitors, biochemical, fluorogenic H-Leu-NHMec substrate, 1536-well (AID 1445); set-up: species or system Plasmodium falciparum 3D7, 3D7
T3 sequence (O96935 whole entry): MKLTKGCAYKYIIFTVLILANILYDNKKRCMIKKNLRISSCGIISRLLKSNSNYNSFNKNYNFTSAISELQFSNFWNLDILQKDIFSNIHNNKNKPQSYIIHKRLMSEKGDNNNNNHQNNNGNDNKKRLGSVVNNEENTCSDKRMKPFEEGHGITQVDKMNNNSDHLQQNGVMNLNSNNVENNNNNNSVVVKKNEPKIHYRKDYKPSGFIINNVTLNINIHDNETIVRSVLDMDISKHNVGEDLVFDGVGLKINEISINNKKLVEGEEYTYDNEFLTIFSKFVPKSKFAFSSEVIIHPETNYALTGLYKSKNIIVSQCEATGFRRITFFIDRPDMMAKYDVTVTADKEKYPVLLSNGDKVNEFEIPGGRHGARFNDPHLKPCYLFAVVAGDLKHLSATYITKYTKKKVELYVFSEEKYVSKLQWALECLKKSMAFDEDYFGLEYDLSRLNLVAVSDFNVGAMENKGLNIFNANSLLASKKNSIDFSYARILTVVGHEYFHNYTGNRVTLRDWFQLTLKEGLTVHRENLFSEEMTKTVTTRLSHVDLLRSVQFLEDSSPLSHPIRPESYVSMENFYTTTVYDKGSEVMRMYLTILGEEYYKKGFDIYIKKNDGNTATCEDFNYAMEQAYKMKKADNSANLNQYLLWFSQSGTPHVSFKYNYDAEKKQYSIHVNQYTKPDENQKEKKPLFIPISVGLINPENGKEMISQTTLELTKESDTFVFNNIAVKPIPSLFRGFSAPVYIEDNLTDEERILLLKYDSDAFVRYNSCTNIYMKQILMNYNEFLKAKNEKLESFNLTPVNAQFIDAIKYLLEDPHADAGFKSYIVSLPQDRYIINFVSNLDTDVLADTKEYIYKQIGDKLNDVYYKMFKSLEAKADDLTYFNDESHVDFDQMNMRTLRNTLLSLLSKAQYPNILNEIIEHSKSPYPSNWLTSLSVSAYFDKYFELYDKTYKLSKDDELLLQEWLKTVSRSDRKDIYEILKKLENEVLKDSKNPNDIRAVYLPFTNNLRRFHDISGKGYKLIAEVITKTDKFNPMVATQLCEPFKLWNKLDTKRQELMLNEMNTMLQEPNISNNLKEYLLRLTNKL

Chain of Voltage-dependent T-type calcium channel subunit alpha-1H (O95180 whole entry): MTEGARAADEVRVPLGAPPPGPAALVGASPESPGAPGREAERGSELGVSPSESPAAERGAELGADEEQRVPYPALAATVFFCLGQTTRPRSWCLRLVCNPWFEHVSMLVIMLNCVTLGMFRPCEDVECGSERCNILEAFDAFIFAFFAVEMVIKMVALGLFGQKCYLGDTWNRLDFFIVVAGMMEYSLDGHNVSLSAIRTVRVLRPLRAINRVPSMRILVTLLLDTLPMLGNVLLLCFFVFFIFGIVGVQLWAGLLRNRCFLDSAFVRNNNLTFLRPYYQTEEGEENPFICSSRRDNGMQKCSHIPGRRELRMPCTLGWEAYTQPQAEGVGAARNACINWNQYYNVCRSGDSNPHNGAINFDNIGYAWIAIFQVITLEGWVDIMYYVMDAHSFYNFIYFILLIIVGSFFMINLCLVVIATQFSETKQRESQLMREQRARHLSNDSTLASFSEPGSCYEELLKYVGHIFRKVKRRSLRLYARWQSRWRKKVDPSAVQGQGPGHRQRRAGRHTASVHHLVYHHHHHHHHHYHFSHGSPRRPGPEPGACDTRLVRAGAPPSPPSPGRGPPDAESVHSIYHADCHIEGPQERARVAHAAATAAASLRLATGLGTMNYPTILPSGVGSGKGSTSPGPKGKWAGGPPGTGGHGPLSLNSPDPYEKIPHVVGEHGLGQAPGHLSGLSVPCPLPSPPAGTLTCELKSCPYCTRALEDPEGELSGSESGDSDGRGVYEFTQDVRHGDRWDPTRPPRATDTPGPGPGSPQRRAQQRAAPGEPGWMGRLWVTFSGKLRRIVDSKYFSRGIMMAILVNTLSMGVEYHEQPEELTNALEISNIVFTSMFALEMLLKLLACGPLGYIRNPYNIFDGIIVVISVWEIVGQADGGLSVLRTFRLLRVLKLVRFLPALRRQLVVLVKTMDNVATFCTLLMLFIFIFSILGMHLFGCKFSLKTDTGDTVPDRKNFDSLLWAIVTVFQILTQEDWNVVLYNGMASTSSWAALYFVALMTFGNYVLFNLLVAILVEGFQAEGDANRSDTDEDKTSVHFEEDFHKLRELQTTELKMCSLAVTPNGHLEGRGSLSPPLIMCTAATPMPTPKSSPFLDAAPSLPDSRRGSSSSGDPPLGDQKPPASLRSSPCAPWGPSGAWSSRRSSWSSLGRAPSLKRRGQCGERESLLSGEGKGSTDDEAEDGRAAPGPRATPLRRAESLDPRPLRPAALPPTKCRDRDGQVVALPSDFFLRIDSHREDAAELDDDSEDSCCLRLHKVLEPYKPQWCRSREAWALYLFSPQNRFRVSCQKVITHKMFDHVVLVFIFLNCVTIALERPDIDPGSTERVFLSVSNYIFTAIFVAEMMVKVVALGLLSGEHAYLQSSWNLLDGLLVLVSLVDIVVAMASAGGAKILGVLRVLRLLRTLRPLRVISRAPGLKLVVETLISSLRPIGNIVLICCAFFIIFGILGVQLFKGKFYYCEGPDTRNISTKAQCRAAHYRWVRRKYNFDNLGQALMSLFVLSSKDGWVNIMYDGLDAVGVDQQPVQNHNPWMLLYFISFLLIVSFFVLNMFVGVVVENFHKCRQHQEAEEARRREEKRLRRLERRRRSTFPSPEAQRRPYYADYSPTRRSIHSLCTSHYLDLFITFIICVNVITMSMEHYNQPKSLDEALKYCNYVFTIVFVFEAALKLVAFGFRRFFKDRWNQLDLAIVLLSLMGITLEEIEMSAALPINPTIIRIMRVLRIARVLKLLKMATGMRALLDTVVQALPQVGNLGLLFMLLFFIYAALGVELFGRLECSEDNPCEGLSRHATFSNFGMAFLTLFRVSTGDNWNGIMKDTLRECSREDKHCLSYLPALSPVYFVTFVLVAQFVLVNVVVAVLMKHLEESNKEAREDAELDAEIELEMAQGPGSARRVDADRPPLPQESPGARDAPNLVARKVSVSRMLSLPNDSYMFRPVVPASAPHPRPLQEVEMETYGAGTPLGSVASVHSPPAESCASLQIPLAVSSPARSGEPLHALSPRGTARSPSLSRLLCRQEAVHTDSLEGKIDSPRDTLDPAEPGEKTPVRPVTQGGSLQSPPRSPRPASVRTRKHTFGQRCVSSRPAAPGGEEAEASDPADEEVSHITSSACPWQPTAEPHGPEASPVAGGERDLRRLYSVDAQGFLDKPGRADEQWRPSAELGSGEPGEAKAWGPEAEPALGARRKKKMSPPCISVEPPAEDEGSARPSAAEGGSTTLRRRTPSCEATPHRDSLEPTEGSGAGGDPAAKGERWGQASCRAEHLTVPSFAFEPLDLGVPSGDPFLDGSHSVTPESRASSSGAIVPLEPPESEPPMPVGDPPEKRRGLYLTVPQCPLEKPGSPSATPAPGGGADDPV
Chain of Eukaryotic translation initiation factor 4E (P63073 whole entry): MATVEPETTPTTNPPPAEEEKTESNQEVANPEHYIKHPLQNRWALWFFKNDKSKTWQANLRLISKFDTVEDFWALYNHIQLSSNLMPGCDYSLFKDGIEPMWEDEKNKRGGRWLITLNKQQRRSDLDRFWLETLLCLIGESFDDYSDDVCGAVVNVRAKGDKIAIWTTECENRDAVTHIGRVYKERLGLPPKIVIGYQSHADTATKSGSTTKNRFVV
Chain of Cytochrome P450 3A4 (P08684 whole entry): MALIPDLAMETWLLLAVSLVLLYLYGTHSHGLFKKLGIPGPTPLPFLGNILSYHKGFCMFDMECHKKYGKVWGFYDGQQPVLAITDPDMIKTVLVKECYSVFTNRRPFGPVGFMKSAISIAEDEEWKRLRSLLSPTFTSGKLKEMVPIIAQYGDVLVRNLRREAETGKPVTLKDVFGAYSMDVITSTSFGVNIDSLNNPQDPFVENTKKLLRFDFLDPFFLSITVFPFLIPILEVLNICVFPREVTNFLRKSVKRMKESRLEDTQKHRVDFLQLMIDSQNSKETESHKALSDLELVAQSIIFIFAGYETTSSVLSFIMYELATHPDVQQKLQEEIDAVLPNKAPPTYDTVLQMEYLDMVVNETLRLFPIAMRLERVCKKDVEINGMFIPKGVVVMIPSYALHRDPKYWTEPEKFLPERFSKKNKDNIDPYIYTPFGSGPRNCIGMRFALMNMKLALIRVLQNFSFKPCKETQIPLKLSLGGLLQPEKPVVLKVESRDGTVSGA

For `CSCc1nnc(NC(=O)c2ccc(S(=O)(=O)N(CC(C)C)CC(C)C)cc2)o1`, the EC50 [1] was 1.01 µM (active), the EC50 [2] was 2.51 µM (active) and the EC50 [3] was 3.07 µM (active).

For `Cc1onc(-c2c(F)cccc2Cl)c1C(=O)N1CCN(c2ncc(Br)cn2)CC1`, the EC50 [4] was 4.73 µM (active), the IC50 [5] was > 47.1 µM (inactive) and the EC50 [6] was > 53 µM (inactive).

For `CCOC(=O)c1oc2ccc(OC)cc2c1NC(=O)CN1CCN(C)CC1`, the EC50 [4] was 1.06 µM (active).

In the case of `CCCCCCN(C(=O)CCCCCN1C(=O)NC(c2ccc(-c3ccccc3)cc2)C(C(=O)OCc2ccccc2)=C1C)C(C(=O)NCCCC)c1cccc(C(=O)OC)c1` (stereo not given), the AC50 [7] is reported as 2.51 µM (inconclusive).

For `C=CCCCCCCCCCCC/C=C/C(O)COC(C)=O` (stereo not given) [DEHYDROAVOCATIN-1-ACETATE], the AC50 [7] was 39.8 µM (inconclusive).

In the case of `CCN(CC)S(=O)(=O)c1cc(C(=O)Nc2ccc(Cl)cn2)ccc1C`, the EC50 [3] is reported as 2.3 µM (active).

For `Cc1ccc(-n2c(Cc3cccn3C)nnc2SCC(=O)Nc2ccc3c(c2)OCO3)cc1`, the EC50 [3] was 1.25 µM (active).

With `CCOC(=O)c1c(CSC(=N)N)n(-c2ccc(Br)cc2)c2cc(Br)c(OC(C)=O)cc12` the EC50 [8] was 16.1 µM (active), the EC50 [9] was 14.3 µM (active) and the IC50 [10] was > 64 µM (inactive).

With `CC(=O)c1ccc(-c2cccs2)s1` the IC50 [11] was 40 µM (active), the IC50 [5] was > 47.1 µM (inactive) and the EC50 [6] was > 53 µM (inactive).

In the case of `Cc1sc(NC(=O)Cn2nc(C(F)(F)F)cc2C)c(C(=O)OC(C)C)c1C`, the IC50 [10] is reported as > 64 µM (inactive).

With `CCCN(CCC)CCCNC(=O)c1ccc2c(Cl)c3c(nc2c1)CCC3` the EC50 [4] was 0.0107 µM (active).

With `COc1ccc(O)c(/C=C(\C#N)C(=O)Nc2cccnc2)c1` the IC50 [10] was > 64 µM (inactive).
